These results are taken from patent US20140073651A1, “BENZAMIDE DERIVATIVES AS P2X7 RECEPTOR ANTAGONISTS” (Actelion Pharmaceuticals Ltd., priority 2011, published 2014).

The structures appear in SMILES notation.

In the test the target is T1, human recombinant P2X7 receptor (Homo sapiens, UniProt Q99572).
T1 construct: expressed in transfected cells
T1 sequence (Q99572 1-595): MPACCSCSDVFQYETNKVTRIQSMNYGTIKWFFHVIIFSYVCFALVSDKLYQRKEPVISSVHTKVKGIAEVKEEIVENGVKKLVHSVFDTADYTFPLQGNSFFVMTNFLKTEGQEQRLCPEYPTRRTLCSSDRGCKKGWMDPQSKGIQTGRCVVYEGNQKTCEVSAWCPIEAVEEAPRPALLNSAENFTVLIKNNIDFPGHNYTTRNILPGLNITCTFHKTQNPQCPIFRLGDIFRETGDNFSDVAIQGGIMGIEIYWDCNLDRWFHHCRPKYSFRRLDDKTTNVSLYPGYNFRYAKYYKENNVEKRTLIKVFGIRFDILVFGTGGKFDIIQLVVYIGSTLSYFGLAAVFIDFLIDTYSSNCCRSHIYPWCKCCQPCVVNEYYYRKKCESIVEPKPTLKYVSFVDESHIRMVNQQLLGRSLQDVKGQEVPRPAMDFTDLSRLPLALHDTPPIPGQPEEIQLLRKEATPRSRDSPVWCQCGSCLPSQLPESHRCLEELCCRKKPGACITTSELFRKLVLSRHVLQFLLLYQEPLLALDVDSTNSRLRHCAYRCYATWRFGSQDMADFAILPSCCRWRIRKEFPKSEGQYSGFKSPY
In words: YO-PRO assay (YO-PRO-1 uptake) in HEK cells stably expressing P2X7. It is filed as cell-based. Conditions: HEK-293 cells expressing human recombinant P2X7 receptor; ATP 250 μM, 90 minutes; YO-PRO-1 fluorescence (FLIPR tetra); read-out: IC50 (antagonistic activity with respect to the P2X7 receptor). As to the method: Cell line generation was performed in general according to established molecular cloning protocols. Specifically, RNA was extracted from human whole blood using the Qiagen RNeasy kit (Qiagen, CH) according to the manufacturer's instructions. Subsequently cDNA was made (Superscript II, Invitrogen AG, CH) and the human P2X7 gene (genbank ref. BC011913) was amplified with the following primers: [NT] and [NT] The amplified sequence was subsequently ligated into a pcDNA3.1 (+) NotI, NheI digested plasmid. […] Following a 24 h exposure to DNA, cells were trypsinized and re-seeded at low density in the presence of 250 μg Geneticin. Geneticin resistant cells were then selected during two consecutive rounds of cloning by serial limiting dilution with visual inspection. Individual clones were screened for P2X7 expression by applying ATP and recording the resultant uptake of YO-[…]. Specific cell clones were chosen based on RNA and protein expression. HEK cells stably expressing P2X7 were used to screen drugs using the YO-[…] assay. Cells were grown to confluency in adherent culture at 37° C. in a humidified 5% CO2 incubator (split 1/5 every 3-4 days with DMEM, 10% FCS, 1% Penicillin/Streptomycin, 250 μg/ml Geneticin). Adherent cells were detached by incubation with Trypsine (1 ml per 165 cm^2 dish) for 2 minutes, then washed off with 10 ml PBS (without Mg^2+ and Ca^2+), and resuspended in DMEM, 10% FCS, 1% Penicillin/Streptomycin, no Geneticin. 10'000 cells per well (48 hours before the assay) or 25'000 cells per well (Vi-cell XR (Beckman Coulter) (24 hours before the assay) in 50 μl full medium were seeded on 384-well black-wall, clear bottom plates, that were coated before with 10 μl per well Poly-L-Lysine, incubated for 30-60 minutes at 37° C. and washed once with PBS. Medium was removed from cells and 50 μl of assay buffer containing 0.5 μM YO-[…] was added into the wells. Solutions of antagonist compounds were prepared by serial dilutions of a 10 mM DMSO solution of the antagonist into PBS using a BioMek (Beckman Coulter). Each concentration was performed in duplicate. […] During this time period, four time points were taken. Each time point comprised the average of several measurements made within a few seconds. […] The FLIPR tetra was equipped with Molecular Devices Screen Works system control software to define and run experimental protocols. […] For IC50 measurements the maximum intensity is plotted against the concentration of compound to determine IC50 values.
By IC50 is commonly meant the concentration that gives 50% inhibition. Take `CN(c1ccc(Cl)c(C(=O)NCC2(O)CCCCCCC2)c1)c1ccnc(=O)[nH]1` [Example 48, 2-Chloro-N-(1-hydroxy-cyclooctylmethyl)-5-[methyl-(2-oxo-2,3-dihydro-pyrimidin-4-yl)-amino]-benzamide]: the IC50 came out at 15 nM.
For `CN(c1ccc(Cl)c(C(=O)NCC2(O)CCCC2)c1)c1ccnc(Cl)n1` [Example 49, 2-Chloro-5-[(2-chloro-pyrimidin-4-yl)-methyl-amino]-N-(1-hydroxy-cyclopentylmethyl)-benzamide], the IC50 was 1120 nM.
As for `CN(c1ccc(Cl)c(C(=O)NCC2(O)CCCC2)c1)c1ccnc(=O)[nH]1` [Example 50, 2-Chloro-N-(1-hydroxy-cyclopentylmethyl)-5-[methyl-(2-oxo-2,3-dihydro-pyrimidin-4-yl)-amino]-benzamide], the figure is 258 nM; as for `COC1(CNC(=O)c2cc(N(C)c3ccnc(Cl)n3)ccc2Cl)CCCCC1` [Example 51, 2-Chloro-5-[(2-chloro-pyrimidin-4-yl)-methyl-amino]-N-(1-methoxy-cyclohexylmethyl)-benzamide], 460 nM.
`COC1(CNC(=O)c2cc(N(C)c3ccnc(=O)[nH]3)ccc2Cl)CCCCC1` [Example 52, 2-Chloro-N-(1-methoxy-cyclohexylmethyl)-5-[methyl-(2-oxo-2,3-dihydro-pyrimidin-4-yl)-amino]-benzamide]: the IC50 was determined as 170 nM.
Consider `CN(c1ccc(Cl)c(C(=O)NCC2(C(N)=O)CCCCC2)c1)c1ccnc(Cl)n1` [Example 53, N-(1-Carbamoyl-cyclohexylmethyl)-2-chloro-5-[(2-chloro-pyrimidin-4-yl)-methyl-amino]-benzamide], for which the IC50 stood at 576 nM.
As for `CN(c1ccc(Cl)c(C(=O)NCC2(C(N)=O)CCCCC2)c1)c1ccnc(=O)[nH]1` [Example 54, N-(1-Carbamoyl-cyclohexylmethyl)-2-chloro-5-[methyl-(2-oxo-2,3-dihydro-pyrimidin-4-yl)-amino]-benzamide], the figure is 231 nM; as for `CN(c1ccc(Cl)c(C(=O)NCC2(CO)CCCCC2)c1)c1ccnc(Cl)n1` [Example 55, 2-Chloro-5-[(2-chloro-pyrimidin-4-yl)-methyl-amino]-N-(1-hydroxymethyl-cyclohexylmethyl)-benzamide], 482 nM; as for `CN(c1ccc(Cl)c(C(=O)NCC2(CO)CCCCC2)c1)c1ccnc(=O)[nH]1` [Example 56, 2-Chloro-N-(1-hydroxymethyl-cyclohexylmethyl)-5-[methyl-(2-oxo-2,3-dihydro-pyrimidin-4-yl)-amino]-benzamide], 74 nM.
For `CN(c1ccc(Cl)c(C(=O)NCC2(O)CCC(F)(F)CC2)c1)c1ccnc(Cl)n1` [Example 57, 2-Chloro-5-[(2-chloro-pyrimidin-4-yl)-methyl-amino]-N-(4,4-difluoro-1-hydroxy-cyclohexylmethyl)-benzamide], the IC50 is 214 nM.
With `CN(c1ccc(Cl)c(C(=O)NCC2(O)CCC(F)(F)CC2)c1)c1ccnc(=O)[nH]1` [Example 58, 2-Chloro-N-(4,4-difluoro-1-hydroxy-cyclohexylmethyl)-5-[methyl-(2-oxo-2,3-dihydro-pyrimidin-4-yl)-amino]-benzamide], the IC50 worked out at 51 nM.
As for `CSc1nccc(Nc2ccc(Cl)c(C(=O)N[C@H](C)C3CCCCC3)c2)n1` [Example 59, 2-Chloro-N—((R)-1-cyclohexyl-ethyl)-5-(2-methylsulfanyl-pyrimidin-4-ylamino)-benzamide], the figure is 1810 nM; as for `CSc1nccc(Nc2ccc(Cl)c(C(=O)N[C@H](CO)C3CCCCC3)c2)n1` [Example 60, 2-Chloro-N—((S)-1-cyclohexyl-2-hydroxy-ethyl)-5-(2-methylsulfanyl-pyrimidin-4-ylamino)-benzamide], 1030 nM.
Under `CSc1nccc(Nc2ccc(Cl)c(C(=O)NCC3(O)CCCCCC3)c2)n1` [Example 61, 2-Chloro-N-(1-hydroxy-cycloheptylmethyl)-5-(2-methylsulfanyl-pyrimidin-4-ylamino)-benzamide] stands 681 nM.
Under `CN(c1ccc(Cl)c(C(=O)NCC2(O)CCCCC2)c1)c1cc(Cl)nc(Cl)n1` [Example 62, 2-Chloro-5-[(2,6-dichloro-pyrimidin-4-yl)-methyl-amino]-N-(1-hydroxy-cyclohexylmethyl)-benzamide] stands 416 nM; under `COc1nc(Cl)cc(N(C)c2ccc(Cl)c(C(=O)NCC3(O)CCCCC3)c2)n1` [Example 63, 2-Chloro-5-[(6-chloro-2-methoxy-pyrimidin-4-yl)-methyl-amino]-N-(1-hydroxy-cyclohexylmethyl)-benzamide], 307 nM; under `CN(c1ccc(Cl)c(C(=O)NCC2(O)CCCCC2)c1)c1cc(Cl)[nH]c(=O)n1` [Example 64, 2-Chloro-5-[(6-chloro-2-oxo-1,2-dihydro-pyrimidin-4-yl)-methyl-amino]-N-(1-hydroxy-cyclohexylmethyl)-benzamide], 902 nM.
For the compound `CSc1cc(N(C)c2ccc(Cl)c(C(=O)NCC3(O)CCCCC3)c2)ncn1` [Example 65, 2-Chloro-N-(1-hydroxy-cyclohexylmethyl)-5-[methyl-(6-methylsulfanyl-pyrimidin-4-yl)-amino]-benzamide], the IC50 came to 205 nM.
For `CN(c1ccc(Cl)c(C(=O)NCC2(O)CCCCC2)c1)c1cc(S(C)(=O)=O)ncn1` [Example 66, 2-Chloro-N-(1-hydroxy-cyclohexylmethyl)-5-[(6-methanesulfonyl-pyrimidin-4-yl)-methyl-amino]-benzamide], the IC50 amounted to 158 nM.
`COc1cc(N(C)c2ccc(Cl)c(C(=O)NCC3(O)CCCCC3)c2)ncn1` [Example 67, 2-Chloro-N-(1-hydroxy-cyclohexylmethyl)-5-[(6-methoxy-pyrimidin-4-yl)-methyl-amino]-benzamide]: the IC50 was found to be 337 nM.
Regarding `CN(c1ccc(Cl)c(C(=O)NCC2(O)CCCCC2)c1)c1cc(=O)[nH]cn1` [Example 68, 2-Chloro-N-(1-hydroxy-cyclohexylmethyl)-5-[methyl-(6-oxo-1,6-dihydro-pyrimidin-4-yl)-amino]-benzamide], the IC50 was found to be 288 nM.
Consider `O=C(NCC1(O)CCCCC1)c1cc(Nc2ncccn2)ccc1Cl` [Example 69, 2-Chloro-N-(1-hydroxy-cyclohexylmethyl)-5-(pyrimidin-2-ylamino)-benzamide], for which the IC50 was found to be 326 nM.
As for `CN(c1ccc(Cl)c(C(=O)NCC2(O)CCCCC2)c1)c1ncccn1` [Example 70, 2-Chloro-N-(1-hydroxy-cyclohexylmethyl)-5-(methyl-pyrimidin-2-yl-amino)-benzamide], the figure is 373 nM; as for `COCCN(c1ccc(Cl)c(C(=O)NCC2(O)CCCCC2)c1)c1ncccn1` [Example 71, 2-Chloro-N-(1-hydroxy-cyclohexylmethyl)-5-[(2-methoxy-ethyl)-pyrimidin-2-yl-amino]-benzamide], 2000 nM.
For `CSc1ccnc(Nc2ccc(Cl)c(C(=O)NCC3(O)CCCCC3)c2)n1` [Example 72, 2-Chloro-N-(1-hydroxy-cyclohexylmethyl)-5-(4-methylsulfanyl-pyrimidin-2-ylamino)-benzamide], the IC50 came to 1460 nM.
Under `CSc1ccnc(N(C)c2ccc(Cl)c(C(=O)NCC3(O)CCCCC3)c2)n1` [Example 73, 2-Chloro-N-(1-hydroxy-cyclohexylmethyl)-5-[methyl-(4-methylsulfanyl-pyrimidin-2-yl)-amino]-benzamide] stands 322 nM.
With `COc1ccnc(N(C)c2ccc(Cl)c(C(=O)NCC3(O)CCCCC3)c2)n1` [Example 74, 2-Chloro-N-(1-hydroxy-cyclohexylmethyl)-5-[(4-methoxy-pyrimidin-2-yl)-methyl-amino]-benzamide], the IC50 turned out to be 280 nM.
